According to patent US6946446B2, “Anti-infective agents useful against multidrug-resistant strains of bacteria” (Abbott Laboratories, priority 2000, dated 2005):
In brackets after ≈: the same amount, converted by molar mass.

How the values were obtained:
S. aureus A-5278 = assay: In vitro antibacterial activity, agar dilution MIC; format: cell-based, Staphylococcus aureus; conditions: BHI agar dilution, 35-37° C., 20 to 24 hours
Procedure: (§1) Representative compounds of the present invention were assayed in vitro for antibacterial activity as follows: Petri dishes containing successive aqueous dilutions of the test compound mixed with 10 mL of sterilized Brain Heart Infusion (BHI) agar (Difco 0418-01-5) were prepared. Each plate was inoculated with 1:100 dilutions of a different microorganism, using a Steers replicator block. The inoculated plates were incubated at 35-37° C. for 20 to 24 hours. In addition, a control plate, using BHI agar containing no test compound, was prepared and incubated at the beginning and end of each test.
(§2) An additional plate containing a compound having known susceptibility patterns for the organisms being tested and belonging to the same antibiotic class as the test compound was also prepared and incubated as a further control, as well as to provide test-to-test comparability. Erythromycin A was used for this purpose.
(§3) After incubation, each plate was visually inspected. The minimum inhibitory concentration (MIC) was defined as the lowest concentration of drug yielding no growth, a slight haze, or sparsely isolated colonies on the inoculum spot as compared to the growth control.

[1] = tested on: Resistant Staphylococcus aureus 1775; assay: In vitro antibacterial activity, agar dilution MIC; format: cell-based; conditions: BHI agar dilution, 35-37° C., 20 to 24 hours
Procedure: as §1, §2, §3

| MIC (S. aureus A-5278; Staphylococcus aureus, A5278) | MIC ([1]; Staphylococcus aureus, read-out: MIC S. aureus 1775) | SMILES | MIC S. aureus A-5278 (S. aureus A-5278) | MIC S. aureus 1775 [1] |
| --- | --- | --- | --- | --- |
| – | – | CC[C@H]1OC(=O)[C@H](C)[C@@H](O[C@H]2C[C@@](C)(OC)[C@@H](O)[C@H](C)O2)[C@H](C)[C@@H](O[C@@H]2O[C@H](C)C[C@H](N(C)C)[C@H]2O)[C@](C)(O)C[C@@H](C)C(=O)[C@H](C)[C@@H](O)[C@]1(C)O [Erythromycin, Erythromycin A, reference compound] | >100 µg/mL | >100 µg/mL |
| – | – | CCC1OC(=O)C(C)C(OC2CC(C)(OC)C(O)C(C)O2)C(C)C(OC2OC(C)CC(N(C)C)C2O)C(C)(OCc2cccc(I)c2)CC(C)C(=NO)C(C)C(O)C1(C)O (stereo not shown) [Ex. 12, 6-O-[(3-Iodo)benzyl]-9-oxime Erythromycin A] | 25 µg/mL (≈ 25.9 µM) | 25 µg/mL (≈ 25.9 µM) |
| – | – | CCC1OC(=O)C(C)C(OC2CC(C)(OC)C(O)C(C)O2)C(C)C(OC2OC(C)CC(N(C)C)C2O)C(C)(OCc2ccc(-c3ccccc3)cc2)CC(C)C(=NO)C(C)C(O)C1(C)O (stereo not shown) [Ex. 13, 6-O-[(4-Phenyl)benzyl]-9-oxime Erythromycin A] | 50 µg/mL (≈ 54.6 µM) | 25 µg/mL (≈ 27.3 µM) |
| > 100 µg/mL | > 100 µg/mL | COc1cccc(OC)c1C(=O)N[C@@H]1C(=O)N2[C@@H]1SC(C)(C)[C@@H]2C(=O)O [Methicillin, reference compound] | – | – |
| – | – | CCON=C1C(C)CC(C)(OCC=Cc2cnc3ccccc3c2)C(OC2OC(C)CC(N(C)C)C2O)C(C)C(=O)C(C)C(=O)OC(CC)C(C)(O)C(O)C1C (stereo not shown) [Ex. 1, 6-O-[3-(3-quinolyl)-2-propen-1-yl]-3-descladinose-3-oxo-9-[(O-ethyl)oxime] Erythromycin A] | 25 µg/mL (≈ 31.9 µM) | 12.5 µg/mL (≈ 15.9 µM) |
